# Columns and labels:
# MDA-MB-231 = MDA-MB-231 cell viability (CCK-8) in NK92 co-culture with anti-PD-L1; type: cell-based, human; settings: 300 uM with 10 ug/ml anti-PD-L1, 24/48/72 hours of co-culturing
# Protocol: (§1) The experiment described below was performed to evaluate the tumor cell proliferation inhibitory effect of the combination treatment of the peptide of Example 1 and the anti-PD-L1, which is an immune checkpoint inhibitor. First, 5×10^3 cells of a human prostate cancer cell line PC3, 5×10^3 cells of a human lung cancer cell line A549 (Korean Cell Line Bank), and 1×10^4 cells of a human triple negative breast cancer cell line MDA-MB-231 (ATCC) were seeded in 96 wells and stabilized by culturing overnight. Then, the seeded cells were treated with 10 ug/ml of the anti-PD-L1 and 300 uM of the peptide of Example 1, for each condition while NK92 cells for 5×10^3 cells of each of the PC3 cell line and the MDA-MB-231 cell line and 2.5×10^3 cells of the A549 cell line were additionally seeded. After 24/48/72 hours of co-culturing (for PC3 and MDA-MB-231) and 24/48 hours of co-culturing (for A549), the NK92 cells were removed by washing, and the cancer cell viability was measured by CCK-8 addition. FIG. 15 is a graph illustrating the changes in PC3 cell viability over culturing time for each test group in an anticancer effect evaluation test. In FIG. 15, the x-axis represents culturing time and the y-axis represents cell viability (%). FIG. 16 is a graph illustrating the changes in A549 cell viability over culturing time for each test group in an anticancer effect evaluation test. […]
# 4T1 cells = test: Syngeneic model implanted with paclitaxel-resistant 4T1 cells: tumor volume, Western blot of cleaved PARP and LC3II; type: in vivo, mouse; settings: for Reduction in tumor volume compared to the group administered with only paclitaxel: Balb/c mice, 3 weeks; for Increase in cleaved PARP expression level in tumor compared to paclitaxel-only group / Reduction in LC3II expression level in tumor compared to paclitaxel-only group: Western blot after 3-week administration
# Protocol: Cell death and autophagy marker changes were determined by the Western blot method, using a syngeneic model implanted with 4T1 cells (American Type Culture Collection (ATCC)), which are mouse triple negative breast cancer tumor cells resistant to paclitaxel. The drug administration was started, when the tumor volume was reached to 70 mm^3 after a fat pad of Balb/c mice (6 weeks old, female) was transplanted with 4T1 cells in a concentration of 1×10^6 cells/head. For Week 1, paclitaxel 20 mg/kg was administered on Day 1 and Day 2, and the peptide (10, 100 mg/kg) of Example 1 was co-administered on Day 3, Day 5, and Day 7. In addition, the same process was performed for each of Week 2, and Week 3 (n=3). The tumor volumes were measured daily because the tumors grew very quickly. The changes in cleaved PARP, which is a cell death marker, and the changes in LC3II, which is an autophagy marker, in tumors were analyzed after necropsy on the day after the end of the 3-week administration, by a Western blot test.
# FIG. 5 is a graph illustrating the results of tumor volume measurements according to the number of days after treatment in animal experimentation. In FIG. 5, the x-axis represents the number of days elapsed after treatment and the y-axis represents the tumor volume change (mm^3).
# In addition, the changes in cleaved PARP, which is a cell death marker, are shown in FIG. 6, and the changes in LC3II, which is an autophagy marker, are shown in FIG. 7. FIG. 6 is a graph showing the changes in expression of cleaved PARP, which is a cell death marker, for each treatment group in animal experimentation, and FIG. 7 is a graph showing the changes in expression of LC3II, which is an autophagy marker, for each treatment group in animal experimentation.
# PC3 = PC3 cell viability (CCK-8) in NK92 co-culture with anti-PD-L1; type: cell-based, human; settings: 300 uM with 10 ug/ml anti-PD-L1, 24/48/72 hours of co-culturing
# Protocol: as §1
# [1] = system: PC3 cells co-cultured with NK92 cells; test: PC3/NK92 co-culture: Granzyme B expression by immuno-fluorescence staining; type: cell-based, human; settings: 300 uM with 10 μg/ml anti-PD-L1; 12 hours
# Protocol: The experiment described below was performed to identify the tumor suppression mechanism of the combination treatment of the peptide of Example 1 and anti-PD-L1, which is an immune checkpoint inhibitor. First, prostate cancer cell lines PC3 (ATCC) and NK92 (Immunotherapy Research Center, Korea Research Institute of Bioscience and Biotechnology) were co-cultured. 7.8×10^4 PC3 cells were seeded in 4-well chambers and stabilized by culturing overnight, and the PC3 cells were treated with 10 μg/ml of the anti-PD-L1 and 300 uM of the peptide of Example 1 for each condition while the same number of NK92 cells were additionally seeded. After 12 hours, the NK92 cells were removed by washing, and only tumor cells were fixed. Next, the expression level of Granzyme B was determined through immuno-fluorescence staining. The Granzyme B expression levels were calculated as proportions relative to the control. FIG. 12 is a graph showing a Granzyme B expression level for each test group in an anticancer effect evaluation test, in which the x-axis represents the test group and the y-axis represents the Granzyme B expression level (%) relative to the control group.
# [2] = system: PC3 cells co-cultured with NK92 cells; test: PC3/NK92 co-culture: Western blot of LC3II and cleaved PARP; type: cell-based, human; settings: 300 uM with 10 μg/ml anti-PD-L1
# Protocol: In addition, the expression of LC3II, which is an autophagy marker, and the expression of cleaved PARP, which is a cell death marker, were determined by a Western blot test. 1×10^6 PC3 cells were seeded in 6 wells and stabilized by culturing overnight, and the PC3 cells were treated with 10 μg/ml of the anti-PD-L1 and 300 uM of the peptide of Example 1 for each condition while the same number of NK92 cells were additionally seeded. After a predetermined period of treatment, the NK92 cells were removed by washing, and proteins were isolated from the tumor cells to determine LC3II (12 h) and PARP (24 h) expression changes. The expression amounts of each marker were calculated as proportions relative to the control. FIG. 13 is a graph showing the amount of cleaved PARP expression compared to PARP for each test group in the anticancer effect evaluation test in which the x-axis represents test groups and the y-axis represents the amount (%) of cleaved PARP expression compared to the PARP. FIG. 14 is a graph showing the amount of LC3II expression compared to actin for each test group in an anticancer effect evaluation test, in which the x-axis represents test groups, and the y-axis represents the amount (%) of LC3II expression compared to actin in the test group.
# [3] = 10 mg/kg co-administered with paclitaxel
# [4] = 100 mg/kg co-administered with paclitaxel, p<0.05
substance,measurement,setting,value
"Ac-QLHLD-OH [Example 1, acetyl-QLHLD]",Cancer cell viability compared to the group treated with only anti-PD-L1,MDA-MB-231,significant decrease in cancer cell viability
same,Reduction in tumor volume compared to the group administered with only paclitaxel,4T1 cells; 10 mg/kg co-administered with paclitaxel 20 mg/kg,20%
same,Increase in cleaved PARP expression level in tumor compared to paclitaxel-only group,4T1 cells; [3],2 fold
same,Reduction in LC3II expression level in tumor compared to paclitaxel-only group,4T1 cells; [3],38%
same,Reduction in tumor volume compared to the group administered with only paclitaxel,4T1 cells; 100 mg/kg co-administered with paclitaxel 20 mg/kg,40%
same,Increase in cleaved PARP expression level in tumor compared to paclitaxel-only group,4T1 cells; [4],3 fold
same,Reduction in LC3II expression level in tumor compared to paclitaxel-only group,4T1 cells; [4],86%
same,Cancer cell viability compared to the group treated with only anti-PD-L1,PC3,significant decrease in cancer cell viability
same,Granzyme B expression in tumor cells compared to the group treated with only anti-PD-L1,[1],increased significantly
same,LC3II expression compared to the group treated with only anti-PD-L1,"[2]; 12 h, P<0.001",significantly decreased
same,Cleaved PARP expression compared to the group treated with only anti-PD-L1,"[2]; 24 h, P<0.05",significantly increased
